Measured values taken from ChEMBL document CHEMBL1140201, “Insights into ligand-elicited activation of human constitutive androstane receptor based on novel agonists and three-dimensional quantitative structure-activity relationship” (J Med Chem, 2008).

Tests used:
Assay type in all cases: cell-based
[1] = target: T1, CAR (NR1I3) His203Ala mutant (Homo sapiens, UniProt Q14994, H203A); experiment: Activation of human CAR His203Ala mutant expressed in human C3A cells at 10 uM after 24 hrs by GAL4-dependent luciferase reporter gene assay relative to control; details: C3A cells expressing human CAR His203Ala mutant, read-out: FC
[2] = target: T2, CAR (NR1I3) Asn165Ala mutant (Homo sapiens, UniProt Q14994, N165A); experiment: Activation of human CAR Asn165Ala mutant expressed in human C3A cells at 10 uM after 24 hrs by GAL4-dependent luciferase reporter gene assay relative to control; details: C3A cells expressing human CAR Asn165Ala mutant, read-out: FC
[3] = target: T3, CAR (NR1I3) Ile164Ala mutant (Homo sapiens, UniProt Q14994, I164A); experiment: Activation of human CAR Ile164Ala mutant expressed in human C3A cells at 10 uM after 24 hrs by GAL4-dependent luciferase reporter gene assay relative to control; details: C3A cells expressing human CAR Ile164Ala mutant, read-out: FC
[4] = target: T4, CAR (NR1I3) ligand-binding domain, wild type (Homo sapiens, UniProt Q14994); experiment: Activation of human CAR-LBD expressed in human C3A cells at 10 uM after 24 hrs by GAL4-dependent luciferase reporter gene assay relative to control; details: C3A cells expressing human CAR-LBD, read-out: FC
T4 sequence (Q14994 whole entry): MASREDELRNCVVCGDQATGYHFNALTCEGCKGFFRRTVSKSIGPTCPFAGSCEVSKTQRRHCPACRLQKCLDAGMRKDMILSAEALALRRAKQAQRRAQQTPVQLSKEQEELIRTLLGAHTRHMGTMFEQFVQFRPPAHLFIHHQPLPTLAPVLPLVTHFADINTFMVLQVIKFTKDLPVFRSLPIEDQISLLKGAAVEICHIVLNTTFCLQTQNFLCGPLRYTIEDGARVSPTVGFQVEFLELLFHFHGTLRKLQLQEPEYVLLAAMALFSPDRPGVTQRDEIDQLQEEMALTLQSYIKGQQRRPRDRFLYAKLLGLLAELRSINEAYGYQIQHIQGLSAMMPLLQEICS

[5] = target: T5, CAR (NR1I3) Phe161Ala mutant (Homo sapiens, UniProt Q14994, F161A); experiment: Activation of human CAR Phe161Ala mutant expressed in human C3A cells at 10 uM after 24 hrs by GAL4-dependent luciferase reporter gene assay relative to control; details: C3A cells expressing human CAR Phe161Ala mutant, read-out: FC
[6] = target: T1, CAR (NR1I3) His203Ala mutant; experiment: Activation of human CAR His203Ala mutant expressed in human C3A cells at 4 uM after 24 hrs by GAL4-dependent luciferase reporter gene assay relative to control; details: C3A cells expressing human CAR His203Ala mutant, read-out: FC
[7] = target: T3, CAR (NR1I3) Ile164Ala mutant; experiment: Activation of human CAR Ile164Ala mutant expressed in human C3A cells at 4 uM after 24 hrs by GAL4-dependent luciferase reporter gene assay relative to control; details: C3A cells expressing human CAR Ile164Ala mutant, read-out: FC
[8] = target: T2, CAR (NR1I3) Asn165Ala mutant; experiment: Activation of human CAR Asn165Ala mutant expressed in human C3A cells at 4 uM after 24 hrs by GAL4-dependent luciferase reporter gene assay relative to control; details: C3A cells expressing human CAR Asn165Ala mutant, read-out: FC
[9] = target: T5, CAR (NR1I3) Phe161Ala mutant; experiment: Activation of human CAR Phe161Ala mutant expressed in human C3A cells at 4 uM after 24 hrs by GAL4-dependent luciferase reporter gene assay relative to control; details: C3A cells expressing human CAR Phe161Ala mutant, read-out: FC
[10] = target: T4, CAR (NR1I3) ligand-binding domain, wild type; experiment: Activation of human CAR-LBD expressed in human C3A cells at 4 uM after 24 hrs by GAL4-dependent luciferase reporter gene assay relative to control; details: C3A cells expressing human CAR-LBD, read-out: FC

T3 sequence (Q14994 whole entry I164A, the tested form may be a part): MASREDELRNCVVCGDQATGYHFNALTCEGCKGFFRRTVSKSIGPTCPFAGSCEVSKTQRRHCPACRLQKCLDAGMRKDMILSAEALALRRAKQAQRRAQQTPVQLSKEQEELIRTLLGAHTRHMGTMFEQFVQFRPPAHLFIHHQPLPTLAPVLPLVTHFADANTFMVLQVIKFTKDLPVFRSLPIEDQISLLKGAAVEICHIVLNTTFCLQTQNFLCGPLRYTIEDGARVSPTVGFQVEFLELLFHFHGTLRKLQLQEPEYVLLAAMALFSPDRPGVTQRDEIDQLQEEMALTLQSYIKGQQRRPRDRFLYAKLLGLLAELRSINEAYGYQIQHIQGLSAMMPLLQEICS
T2 sequence (Q14994 whole entry N165A, the tested form may be a part): as the sequence (Q14994 whole entry I164A, the tested form may be a part) above, with A164I, N165A counted along it
T1 sequence (Q14994 whole entry H203A, the tested form may be a part): as the sequence (Q14994 whole entry I164A, the tested form may be a part) above, with A164I, H203A counted along it
T5 sequence (Q14994 whole entry F161A, the tested form may be a part): as the sequence (Q14994 whole entry I164A, the tested form may be a part) above, with F161A, A164I counted along it

Compound | fold induction at 24 h, 10 µM [1] | fold induction at 24 h, 10 µM [2] | fold induction at 24 h, 10 µM [3] | fold induction at 24 h, 10 µM [4] | fold induction at 24 h, 10 µM [5] | fold induction at 24 h, 4 µM [6] | fold induction at 24 h, 4 µM [7] | fold induction at 24 h, 4 µM [8] | fold induction at 24 h, 4 µM [9] | fold induction at 24 h, 4 µM [10]
O=S(=O)(Nc1nc2c(s1)CCCC2)c1ccc(Br)s1 | 1.18 | 1.01 | 1.06 | 1.32 | 1 |  |  |  |  | 
CCC(=O)NCC(=O)N1CCCN1C(=O)Cc1c(C)[nH]c2ccccc12 | 2.06 | 1.23 | 1.08 | 2.39 | 0.96 |  |  |  |  | 
CCOc1ccccc1N1CCN(Cc2ccc(C)s2)CC1 | 1.9 | 2.2 | 1.49 | 2.7 | 1.01 |  |  |  |  | 
CCc1cccc(NC(=O)N(CC)[C@H](C)Cc2ccc(OC)cc2)c1 | 1.88 | 1.72 | 1.32 | 1.86 | 0.92 |  |  |  |  | 
Cc1ccc(NC(=O)NC2CCC2)cc1C | 1.53 | 1.33 | 1.37 | 1.37 | 1.15 |  |  |  |  | 
CCCCCNC(=O)Nc1c(C)cccc1C(C)(C)C | 4.17 | 1.76 | 1.24 | 2.6 | 0.97 |  |  |  |  | 
O=P(Oc1ccccc1)(Oc1ccccc1)Oc1ccccc1 [TRIPHENYL PHOSPHATE] | 2.79 | 3.01 | 6.42 | 3.96 | 0.82 |  |  |  |  | 
CC(C)c1ccc(OP(=O)(Oc2ccc(C(C)C)cc2)Oc2ccc(C(C)C)cc2)cc1 | 6.76 | 2.66 | 1.67 | 2.45 | 1.06 |  |  |  |  | 
CSCCN1C(=O)CS[C@@H]1c1ccc(Br)s1 | 1.28 | 1.87 | 1.3 | 2.97 | 0.97 |  |  |  |  | 
O=C(NCC1CCCCC1)N[C@H]1C[C@@H]1c1ccccc1 | 2.16 | 1.14 | 2.86 | 2.95 | 1.21 |  |  |  |  | 
Cn1ccnc1CN1CCCN(C(=O)Nc2ccc(F)c(F)c2F)CC1 | 1.49 | 1.98 | 1.36 | 2.23 | 1.24 |  |  |  |  | 
COc1ccc(OC)c(CN2C(=O)CS[C@@H]2c2ccc(F)c(Br)c2)c1 | 2.83 | 1.13 | 1.87 | 3.87 | 1.17 |  |  |  |  | 

Next, values leading:

fold induction at 24 h, 10 µM [1] | fold induction at 24 h, 10 µM [2] | fold induction at 24 h, 10 µM [3] | fold induction at 24 h, 10 µM [4] | fold induction at 24 h, 10 µM [5] | fold induction at 24 h, 4 µM [6] | fold induction at 24 h, 4 µM [7] | fold induction at 24 h, 4 µM [8] | fold induction at 24 h, 4 µM [9] | fold induction at 24 h, 4 µM [10] | Compound
1.86 | 0.53 | 1.42 | 3.28 | 0.95 |  |  |  |  |  | O=S(=O)(NCC(c1ccccc1)c1ccccc1)c1cccs1
1.43 | 1.08 | 0.84 | 1.45 | 1.38 |  |  |  |  |  | Cc1cccc(NC(=O)N2CCN(c3cccc(C)c3)[C@H](C)C2)c1
10.1 | 2.75 | 4.57 | 4.47 | 3.62 |  |  |  |  |  | CCc1cc(Br)ccc1S(=O)(=O)Nc1ccccc1[C@@H](C)CC
4.22 | 1.22 | 1.42 | 6.35 | 1.56 |  |  |  |  |  | CCN(c1ccccc1)S(=O)(=O)c1ccc(C(C)(C)CC)cc1
3.68 | 1.82 | 1.56 | 3.8 | 1.22 |  |  |  |  |  | CCCc1ccc(S(=O)(=O)N(Cc2ccccc2)c2ccc(OC)cc2)cc1
1.03 | 0.81 | 1.48 | 4.88 | 1.52 |  |  |  |  |  | CCOc1ccccc1CCCNC(=O)Nc1c(CC)cccc1CC
1.84 | 5.18 | 1.66 | 3.68 | 0.94 |  |  |  |  |  | CSc1ccccc1NS(=O)(=O)c1cc(Cl)sc1Cl
2.26 | 0.99 | 2.33 | 2.03 | 1.12 |  |  |  |  |  | CN(C)c1ccc(NS(=O)(=O)c2ccc(Br)cc2)cc1
1.43 | 1.7 | 1.54 | 1.76 | 1.57 |  |  |  |  |  | O=S(=O)(NCc1csc2ccccc12)c1cccs1
5.44 | 2.07 | 6.61 | 4.09 | 4.4 |  |  |  |  |  | CCCCN(c1ccccc1)S(=O)(=O)c1cccc2ccccc12
3.21 | 1.17 | 2.26 | 1.63 | 0.92 |  |  |  |  |  | O=S(=O)(NCCSCc1ccccc1)c1ccc(Cl)cc1
1.92 | 1.19 | 2.89 | 2.51 | 3.36 |  |  |  |  |  | CCc1cc(Br)ccc1S(=O)(=O)NCc1ccccc1
 |  |  |  |  | 0.21 | 21.3 | 4.47 | 13.1 | 4.34 | Clc1ccccc1C(c1ccccc1)(c1ccccc1)n1ccnc1 [CLOTRIMAZOLE]
3.48 | 3.64 | 3.74 | 4.17 | 1.53 |  |  |  |  |  | Cc1cccc(NC(=O)N(Cc2ccccc2)Cc2ccccc2)c1
1.24 | 1.19 | 1.13 | 1.4 | 1.3 |  |  |  |  |  | O=C1CS[C@H](c2ccncc2)N1Cc1nc2ccccc2[nH]1
1.52 | 1.05 | 6.66 | 5.22 | 1.3 |  |  |  |  |  | C[C@@H]1Cc2ccccc2N1S(=O)(=O)c1cccc2nsnc12
3.29 | 1.1 | 4.14 | 5.5 | 1.08 |  |  |  |  |  | CCN(CC)c1ccc(NS(=O)(=O)c2ccc(Cl)cc2)c(C)c1
2.62 | 1 | 1.55 | 7.92 | 0.94 |  |  |  |  |  | CCc1ccc(S(=O)(=O)Nc2ccccc2C(C)(C)C)cc1
